Measurements published in PubChem BioAssay (NCI).
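Five compound concentrations were applied to cells in 96-well plates for 48 hours; endpoints were derived by simple linear interpolation of the resulting dose-response curve. TGI: concentration producing complete growth inhibition.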

Experiments:
Experiment in all cases: DTP human tumour cell line panel, 48 h
[1] = test system: UACC-257 melanoma
[2] = test system: SF-539 CNS
[3] = test system: SNB-19 CNS
[4] = test system: ACHN renal
[5] = test system: MDA-MB-231 breast
[6] = test system: MCF7 breast
[7] = test system: NCI-H460 lung
[8] = test system: SK-MEL-2 melanoma
[9] = test system: HS 578T breast
[10] = test system: SK-MEL-28 melanoma

Row | SMILES | TGI [1] | TGI [2] | TGI [3] | TGI [4] | TGI [5] | TGI [6] | TGI [7] | TGI [8] | TGI [9] | TGI [10]
1 | CN(/N=C/c1cccc2cccnc12)c1ccc(Cl)cc1[N+](=O)[O-] | > 100 µM | > 100 µM | > 100 µM | > 100 µM | > 100 µM | > 100 µM | > 100 µM | > 100 µM | > 100 µM | 
2 | COc1ccc(-c2cc(=O)c3cc(OC)ccc3[nH]2)cc1 | > 100 µM |  | > 100 µM | > 100 µM |  |  |  |  |  | > 100 µM
3 | CN(C)CCn1c(=O)c2ccc(NCCN3CCNCC3)c3c(=O)c4ccccc4n(c1=O)c23 | 17.3 µM | 9 µM | 23.9 µM | 15.7 µM | 11.8 µM | 12.7 µM | 12 µM | 8.72 µM | 25.9 µM | 25.5 µM
4 | COc1cc(C2c3cc4c(cc3OC(NNS(=O)(=O)c3ccc(C)cc3)C2C)OCO4)cc(OC)c1O (stereo unspecified) | 38.4 µM | 31.4 µM | 56.4 µM | 33.6 µM | 57.5 µM | 36.1 µM | 17.5 µM |  | 55.3 µM | > 100 µM
5 | CSc1nc(NC2OC(COC(C)=O)C(OC(C)=O)C(OC(C)=O)C2OC(C)=O)c2c(n1)OCC2=O (stereo unspecified) | > 100 µM | > 100 µM | > 100 µM | > 100 µM |  |  | > 100 µM | > 100 µM |  | > 100 µM
6 | CC(=O)O[C@H]1CC[C@@]2(C)C(=CC[C@@H]3[C@@H]2CC[C@]2(C)c4c(C)nn(-c5ccccc5)c4C[C@@H]32)C1 | > 100 µM |  | > 100 µM | 61.1 µM | 50.6 µM | > 100 µM | 47.9 µM |  | 67.2 µM | > 100 µM
7 | O=C(c1ccccc1)c1ccc2[nH]c(-c3c(Cl)c(Cl)c(Cl)c(Cl)c3C(=O)N/N=C/c3cccc(Oc4ccccc4)c3)nc2c1 | > 100 µM | > 100 µM | > 100 µM | > 100 µM | > 100 µM | > 100 µM |  | > 100 µM | > 100 µM | > 100 µM
8 | CCOC(=O)C(Cc1ccc(OC(=O)c2ccc(OC)cc2)cc1)NC(=O)C(F)(F)F (stereo unspecified) | > 100 µM | > 100 µM | > 100 µM | > 100 µM | > 100 µM | > 100 µM | > 100 µM | > 100 µM | > 100 µM | 
9 | O=[N+]([O-])C(=C(N1CCOCC1)N1CCOCC1)/C(Cl)=C(\Cl)Br | 31.8 µM | 57.9 µM | > 100 µM | 54 µM | 31.8 µM |  | > 100 µM | 44.8 µM | > 100 µM | 33.8 µM
10 | CC(C)N=C(N)NC#N | > 100 µM | > 100 µM | > 100 µM | > 100 µM |  |  | > 100 µM | > 100 µM |  | 
11 | CC1=C(c2ccccc2)NC(=S)C(C)C(c2ccccc2)=N1 (stereo unspecified) | > 100 µM | 30.9 µM | > 100 µM | > 100 µM | > 100 µM | > 100 µM | > 100 µM |  |  | > 100 µM
12 | S=C1CCSc2c(ccc3ccccc23)N1 | > 100 µM |  | > 100 µM | > 100 µM | > 100 µM | > 100 µM | > 100 µM |  | > 100 µM | > 100 µM
